Reference: PMC5603512, “Discovery, Semisynthesis, Antiparasitic and Cytotoxic Evaluation of 14-Membered Resorcylic Acid Lactones and Their Derivatives” (Scientific Reports, 2017)
Read-outs that look alike come from different tables or passages of the source.

Columns and labels:
Trypanosoma cruzi = test: Antitrypanosomal assay (beta-galactosidase reporter, intracellular amastigotes in Vero cells); assay type: cell-based; conditions: for IC50: Trypanosoma cruzi; for Trypanosoma cruzi IC50: key: I: Inactive
Procedure: Briefly, the expression of the reporter gene for beta-galactosidase (β-Gal) in the Tulahuen clone C4 of T. cruzi is assessed by colorimetry at 570 nm, which correlates with the parasite growth. Assays were performed on the intracellular amastigote form of the parasite infecting African green monkey kidney (Vero) cells, incubated for 120 h at 37 °C with 5% CO2.

[1] = Cytotoxicity MTT assay, K562; conditions: human
Procedure: (§1) All of the compounds were also evaluated for their cytotoxic properties against six human cancer cell lines (lung carcinoma epithelian (A549), colon carcinoma (HCT-116), pancreatic carcinoma (BXPC-3), breast cancer (MCF-7), cervical epithelium (HeLa), and erythroleukemic (K562)) and a human umbilical vein endothelial cell (HUVEC) line (Table 2).
(§2) The cytotoxicity against HCT-116, BXPC-3, HeLa, MCF-7, A-549, and HUVEC cell lines was evaluated using the SRB method. The cytotoxicity against K562 and Vero cell lines was evaluated using the MTT method. Adriamycin was used as a positive control. All cells were cultivated in T-75 flasks containing 10% Fetal Bovine Serum (FBS), Dulbeco’s Modified Eagle Medium (DMEM) with 2 mM L-glutamine, and 1% penicillin-streptomycin at 37 °C in a humidified atmosphere with 5% CO2. For SRB assay, cells in their log phase of growth were seeded into 96 well micro plates (4 × 10^4 cells per well) and followed by treating with test samples at 10 μM or DMSO. After incubation at 37 °C for 72 h, the cells were fixed with the cold 20% (w/v) TCA for 2 h and stained with Sulforhodamine B (SRB) dye for 0.5 h. The protein-bound dye is dissolved in Tris base solution for OD determination at 540 nm on an ELISA Plate Reader. For MTT assay, cells (5 × 10^3 cells per well) were plated in 96 well micro plates. After cell attachment overnight, new medium containing test compounds or DMSO was added. The plate was incubated for 48 h at 37 °C and incubated with 3-(4,5-dimethylthiazol-2-yl)-2,5-diphenyltetrazolium bromide (MTT) for additional 2–4 hours. The assay plate was then read at 490 nm on an ELISA Plate Reader. The data were obtained from experiments carried out in triplicate.

[2] = Toxicity against Vero cells (MTT); assay type: cell-based, African green monkey; conditions: African green monkey, MTT, 48 h
Procedure: It should be emphasized that toxicity is a major concern of drug discovery and development. The above active compounds were evaluated for in vitro toxicity against a mammalian kidney cell line (Vero). The selectivity index (SI) was used as the evaluation parameter of drug potential of the test samples by comparing the toxicity on the Vero cell line (CC50) and the selective inhibitory effect on P. falciparum, L. donovani or T. cruzi (IC50) calculated here as CC50/IC50.
Adriamycin was used as a positive control.

[3] = Cytotoxicity SRB assay, HCT-116; conditions: human
Procedure: as §1, §2

[4] = Cytotoxicity SRB assay, HeLa; conditions: human
Procedure: as §1, §2

[5] = Cytotoxicity SRB assay, A-549; conditions: human
Procedure: as §1, §2

[6] = Cytotoxicity SRB assay, BXPC-3; conditions: human
Procedure: as §1, §2

Leishmania donovani = test: Antileishmanial assay (PicoGreen); assay type: cell-based
Procedure: The anti-leishmania activity was evaluated following the protocol described by Calderon et al.[39], using the fluorescent DNA intercalator PicoGreen (Invitrogen, USA). The species responsible for visceral leishmaniasis, L. donovani, was used for the assays.

Plasmodium falciparum = test: Antiplasmodial assay (PicoGreen growth inhibition in infected human erythrocytes); assay type: cell-based; conditions: read-out: Plasmodium falciparum IC50
Procedure: Activity against the causative agent of malaria was performed by culturing human erythrocytes and infecting them with P. falciparum, as described by Trager and Jensen[36]. Briefly, the W2 (Chloroquine resistant) and 3D7 (Chloroquine sensitive) strains of P. falciparum were cultured in RPMI 1640 medium (Sigma-Aldrich, USA) supplemented with 10% human serum (from O+ blood) at a hematocrit of 2% erythrocytes (O+) at 37 °C in a gas mixture of 5% CO2, 5% O2, and 90% N2. Parasites were synchronized by a temperature cycling technique as described by Almanza et al.[37]

[7] = Cytotoxicity SRB assay, MCF-7; conditions: human
Procedure: as §1, §2

[8] = Cytotoxicity SRB assay, HUVEC; conditions: human
Procedure: as §1, §2

[9] = Tulahuen clone C4, intracellular amastigotes in Vero cells, 120 h
[10] = read-out: Leishmania donovani IC50
[11] = BXPC-3 pancreatic carcinoma cells
[12] = in vitro, read-out: Leishmania donovani IC50
[13] = Erythrocyte, in vitro, W2 and 3D7 strains cultured, strain of the values not stated
[14] = Vero cells (mammalian kidney cell line)

SMILES: O=C(Cn1ccnc1[N+](=O)[O-])NCc1ccccc1 [benznidazole, reference compound]
- IC50 (Trypanosoma cruzi; Vero, control drug, sentence ends with ref 41, read-out: IC50 of control drug, antitrypanosomal assay): 3.85 µM

SMILES: COc1cc(O)c2c(c1Cl)/C=C/C[C@H](O)[C@@H]1OC(C)(C)O[C@H]1CCC[C@H](C)OC2=O [Compound 18]
- IC50 at 48 h [1]: > 10 µM
- Trypanosoma cruzi IC50 (Trypanosoma cruzi; [9]): I
- CC50 at 48 h [2]: 102 µM
- IC50 at 72 h [3]: > 10 µM
- IC50 at 72 h [4]: > 10 µM
- IC50 at 72 h [5]: > 10 µM
- IC50 at 72 h [6]: > 10 µM
- IC50 (Leishmania donovani; [10]): > 15.7 µM
- IC50 (Plasmodium falciparum; 3D7, Erythrocyte): > 30.7 µM
- IC50 at 72 h [7]: > 10 µM

SMILES: COc1cc(O)c2c(c1)/C=C/C[C@@H](O)[C@@H](O)C(=O)/C=C/C[C@H](C)OC2=O [Compound 5]
- IC50 at 48 h ([1]; K562 erythroleukemic cells): > 10 µM
- Trypanosoma cruzi IC50 (Trypanosoma cruzi; [9]): I
- IC50 at 72 h ([3]; HCT-116 colon carcinoma cells): > 10 µM
- IC50 at 72 h ([4]; HeLa cervical epithelium cells): > 10 µM
- IC50 at 72 h ([5]; A-549 lung carcinoma cells): > 10 µM
- IC50 at 72 h [6, 11]: > 10 µM
- IC50 (Leishmania donovani; [12]): > 15.7 µM
- IC50 (Plasmodium falciparum; [13]): > 30.7 µM
- IC50 at 72 h ([7]; MCF-7 breast cancer cells): > 10 µM

SMILES: COc1cccc2c1C(=O)c1c(O)c3c(c(O)c1C2=O)C[C@@](O)(C(=O)CO)C[C@@H]3O[C@H]1C[C@H](N)[C@H](O)[C@H](C)O1 [Adriamycin, reference compound]
- IC50 at 48 h ([1]; K562 erythroleukemic cells): 0.25 µM
- IC50 at 72 h ([3]; HCT-116 colon carcinoma cells): 0.21 µM
- IC50 at 72 h ([4]; HeLa cervical epithelium cells): 0.6 µM
- IC50 at 72 h ([5]; A-549 lung carcinoma cells): 0.16 µM
- IC50 at 72 h [6, 11]: 0.033 µM
- IC50 at 72 h ([7]; MCF-7 breast cancer cells): 0.86 µM

SMILES: COc1cc(O)c2c(c1)/C=C/C[C@H]1OC(C)(C)O[C@H]1C(=O)/C=C/C[C@H](C)OC2=O [Compound 25]
- IC50 at 48 h [1]: > 10 µM
- Trypanosoma cruzi IC50 (Trypanosoma cruzi; [9]): I
- IC50 at 72 h [8]: > 10 µM
- IC50 at 72 h [3]: > 10 µM
- IC50 at 72 h [4]: > 10 µM
- IC50 at 72 h [5]: > 10 µM
- IC50 at 72 h [6]: > 10 µM
- IC50 (Leishmania donovani; [12]): > 15.7 µM
- IC50 (Plasmodium falciparum; [13]): > 30.7 µM
- IC50 at 72 h [7]: > 10 µM

SMILES: COc1cc(O)c2c(c1)/C=C/C[C@H](O)[C@H](O)C(=O)CCC[C@H](C)OC2=O [Compound 9]
- IC50 at 48 h [1]: > 10 µM
- Trypanosoma cruzi IC50 (Trypanosoma cruzi; [9]): I
- CC50 at 48 h [2]: 131 µM
- IC50 at 72 h [3]: > 10 µM
- IC50 at 72 h [4]: > 10 µM
- IC50 at 72 h [5]: > 10 µM
- IC50 at 72 h [6]: > 10 µM
- IC50 (Leishmania donovani; [10]): > 15.7 µM
- IC50 (Plasmodium falciparum; 3D7, Erythrocyte): > 30.7 µM
- IC50 at 72 h [7]: > 10 µM

SMILES: COc1cc(O)c2c(c1Cl)/C=C/C[C@H](O)[C@@H]1OC(C)(C)O[C@H]1/C=C/C[C@H](C)OC2=O [Compound 17]
- IC50 at 48 h ([1]; K562 erythroleukemic cells): > 10 µM
- Trypanosoma cruzi IC50 (Trypanosoma cruzi; [9]): I
- CC50 at 48 h [2, 14]: 143 µM
- IC50 at 72 h ([3]; HCT-116 colon carcinoma cells): > 10 µM
- IC50 at 72 h ([4]; HeLa cervical epithelium cells): > 10 µM
- IC50 at 72 h ([5]; A-549 lung carcinoma cells): > 10 µM
- IC50 at 72 h [6, 11]: > 10 µM
- IC50 (Leishmania donovani; [12]): > 15.7 µM
- IC50 (Plasmodium falciparum; [13]): > 30.7 µM
- IC50 at 72 h ([7]; MCF-7 breast cancer cells): > 10 µM

SMILES: COc1cc2c(c(OC(=O)c3cccs3)c1)C(=O)O[C@@H](C)C/C=C/C(=O)[C@@H](OC(=O)c1cccs1)[C@@H](OC(=O)c1cccs1)C/C=C/2 [Compound 22]
- IC50 (Trypanosoma cruzi; Tulahuen clone C4, intracellular amastigotes in Vero cells, 120 h, read-out: Trypanosoma cruzi IC50): 6.31 µM
- CC50 at 48 h [2, 14]: 11.5 µM
- IC50 (Leishmania donovani; [12]): 3.03 µM
- IC50 (Plasmodium falciparum; [13]): 20.1 µM

SMILES: C[C@@H]1[C@H](O)[C@@H](C)/C=C/C=C/C=C/C=C/C=C/C=C/C=C/[C@H](O[C@@H]2O[C@H](C)[C@@H](O)[C@H](N)[C@@H]2O)C[C@@H]2O[C@](O)(C[C@@H](O)C[C@@H](O)[C@H](O)CC[C@@H](O)C[C@@H](O)CC(=O)O[C@H]1C)C[C@H](O)[C@H]2C(=O)O [Amphotericin B, reference compound]
- IC50 (Leishmania donovani; positive control, sentence ends with ref 40, read-out: IC50 of positive control, antileishmanial assay): 0.0763 µM
